System: patients suffering major depressive disorder
Assay: open-label desvenlafaxine treatment of MDD outpatients, HDRS assessed every two weeks
Format: in vivo, human
Description: A […] clinical trial was performed to examine the clinical validity of a five gene, combinatorial, pharmacogenetic-based antidepressant dosing support tool for desvenlafaxine dosing. Participants were self-identified Caucasian outpatients aged 18 years and older with a principal DSM-5 diagnosis of MDD (semi-structured psychiatrist assessment) and a 17-item Hamilton Depression Rating Scale (HDRS) score greater than or equal to 18. Participants with other active psychiatric diagnoses were excluded, specifically those suffering with adjustment disorder with depressed mood, persistent depressive disorder, and subjects with a principal clinical diagnosis of a personality disorder. Additional exclusion criteria included pregnancy or breastfeeding, hepatic or renal impairments, co-prescription of known UGT1A1 or ABCB1 inducers/inhibitors (e.g. St John's Wort, valproic acid), regular grapefruit juice consumption, and current smoking which may influence appropriate dosing. A total of 131 individuals were screened for eligibility criteria. […] All participants received desvenlafaxine in an open-label manner during the 10-week study period. At baseline, age, sex, duration of the current depressive episode, and number of depressive episodes was recorded. […] Symptom severity was assessed at baseline and every two-weeks thereafter during the study period with the HDRS. […]

For `CN(C)CC(c1ccc(O)cc1)C1(O)CCCCC1` (centres unmarked) [desvenlafaxine], which “participants achieved symptom remission (HDRS score of 7 or less by week 10)” value (after 10 weeks of desvenlafaxine treatment, 119 MDD participants, dose adjusted every two weeks) is on record?
The value was 80%.

What about the “greater than 50% reduction in HDRS from baseline” value (among the 24 participants who did not achieve symptom remission by week 10) of the same compound?
Its value is 42%.
